Assay results from patent publication US6043228A, “O^6 -substituted guanine derivatives, a process for their preparation and their use in treating tumor cells” (Cancer Research Campaign Technology Limited, priority 1993, dated 2000).
pIC50: −log10 of the molar value. “Also recorded” adds a separate entry of the source. Where two headings read alike, the source gives them in different places.

Experiments:
[1] = system: ATase; assay: Inactivation of ATase in mammalian cells, summary over human, rat and Chinese hamster cell lines; type: cell-based; conditions: Table 5
Protocol: Mammalian cells were cultured under standard conditions. For example, Raji (a human lymphoblastoid cell line from a Burkitt's lymphoma) cells were grown in suspension culture in RPMI medium supplemented with 10% horse serum. […]
Cells were diluted to 10^6 /ml in culture medium containing either the appropriate concentration of inactivator or an equivalent volume of vehicle (DMSO). […] ATase activity was determined as described above, in duplicate sonicated cell extracts and expressed as the, percentage activity remaining based on that present in the untreated controls (for example 350-450 fm/mg in Raji cells).

[2] = system: nude mice; assay: Xenograft study: survival of nude mice given inactivator plus BCNU; conditions: FIGS. 9-13
Text: BALB-C derived athymic male mice (nu/nu athymic) weighing between 25-35 g were obtained from the in-house breeding colony of the Paterson Institute for Cancer Research, Christie Hospital NHS Trust, Wilmslow Road, Manchester M20 9BX, England (ASU mice). The animals were housed in a sterile environment until required for experiments. In one experiment mice were obtained from Harlan-Olac, Harlan UK Limited, Shaw's Farm, Blackthorn, Bicester, Oxon. OX6 OPT, England (OLAC mice).

[3] = target: T1, ATase in Raji cells (Homo sapiens, UniProt P16455); assay: Inactivation of ATase activity in mammalian cells: Raji; type: cell-based
T1 construct: endogenous in cells; host or cells: Raji
T1 sequence (P16455 1-207): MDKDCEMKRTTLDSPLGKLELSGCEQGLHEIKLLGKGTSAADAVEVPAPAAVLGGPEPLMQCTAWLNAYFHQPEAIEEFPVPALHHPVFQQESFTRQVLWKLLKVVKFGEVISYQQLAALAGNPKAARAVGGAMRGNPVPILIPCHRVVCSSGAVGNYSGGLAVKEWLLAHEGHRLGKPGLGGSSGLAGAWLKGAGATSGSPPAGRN
Protocol: Mammalian cells were cultured under standard conditions. For example, Raji (a human lymphoblastoid cell line from a Burkitt's lymphoma) cells were grown in suspension culture in RPMI medium supplemented with 10% horse serum. A375M cells are human melanoma cells from which the xenografts described below were established following subcutaneous injection into nude mice: WiDr cells are a human colon carcinoma cell line: Hamster+120 cells are a mitozolomide-selected subline of a Chinese hamster lung fibroblast V79 cell line called RJKO: Yoshida cells are a rat carcinosarcoma cell line and YRbus is a busulphan resistant subline thereof: XP cells are an SV40-transformed fibroblast cell line originally from the skin of a Xeroderma piamentosum patient, pHMGhAT2b cells are a clone of these cells that have been transfected with a mammalian cell expression vector containing the human ATase cDNA and pHMGla cells are a clone that have been transfected with the expression vector only (i.e. one not containing the human ATase cDNA). Cell pellets were resuspended in cold (4° C.) buffer I containing 2 μg/ml leupeptin and sonicated for 10 seconds at 12μ peak to peak distance. After cooling in ice, the cells were sonicated for a further 10 seconds at 18μ. […]

[4] = system: human bone marrow granulocyte macrophage colony forming cells; assay: Sensitization of bone marrow cells to temozolomide (GM-CFC assay); type: cell-based; conditions: for sensitization of human bone marrow cells to temozolomide, in words: 10 μM inactivator
Text: For the granulocyte/macrophage colony-forming cell (GM-CFC) assay primary human bone marrow samples were obtained from patients undergoing cardiothoracic surgery. […] The colonies represented precursor cells of the granulocyte/macrophage lineage (huGM-CFC). Survival was expressed as a % of the number of colonies at zero dose temozolomide.

[5] = system: DBA2 mice; assay: Toxicity of inactivators in combination with BCNU in DBA2 mice; type: in vivo, mouse; conditions: Table 11
Text: All agents were given as a single i.p. dose

[6] = system: ATase; assay: ATase activity in tissues of nude mice after inactivator; type: in vivo, mouse; conditions: 10 mg/kg i.p., 24 and 48 hours (Table 10)
Protocol: ATase substrate DNA was prepared by incubation of purified calf thymes DNA with N-[^3 H]-methyl-N-nitrosuourea (18.7 Ci/mmole, Amersham International). Cell or tissue extracts (see 4.4) were incubated with [^3 H]-methylated-DNA substrate (100 μl containing 6.7 μg of DNA and 100 fmol of O^6 -[^3 H]methylguanine) at 37° C. for 60 mins. Following acid hydrolysis of the DNA as precviously described^21the [^3 H]-methylated protein was recovered and quantitated by liquid scintillation counting. […]
The mice in the tests shown in FIGS. 17 and 18 were BALB-C derived athymic male mice (nu/nu athymic) from the in-house breeding colony at the Paterson Institute for Cancer Research as described above (Animal Services Unit-ASU Mice).
Animals were given a single dose of B.4280 (10 mg/kg i.p.) and sacrificed

Q: `Nc1nc(OCc2cccs2)c2nc[nH]c2n1` [B.4205, 0^6 -thenylguanine] was tested. Which “effectiveness relative to BeG in the cell lines used” value [1] did it give?
A: up to 7 times

Q: What about the “toxicity in combination with BCNU in nude mice, in words” value [2] of the same compound?
A: substantially less toxic in combination with BCNU than BeG in combination with BCNU; also recorded: very little effect

Q: And the pIC50 ([3]; Table 4, Raji cells, 2 hours at 37° C., read-out: Raji I50)?
A: 7.70

Q: What about the pIC50 ([3]; Table 5, Human Raji, read-out: Inactivation of ATase in Mammalian Cells I50) of the same compound?
A: 7.70

Q: What about the “sensitization of human bone marrow cells to temozolomide, in words” value ([4]; patient D (FIG. 14)) of the same compound?
A: no differential

Q: What about the “sensitization of human bone marrow cells to temozolomide, in words” value ([4]; patients C & E (FIG. 14)) of the same compound?
A: smaller sensitization effect than O^6 -benzylguanine

Q: And the “sensitization of GM-CFC to cytotoxic effects of temozolomide, in words” value ([4]; four different patient samples, 10 μM (FIG. 23))?
A: only occurred in one patient

Q: And the “sensitization of GM-CFCs to toxic effects of temozolomide, in words” value ([4]; three human bone marrow samples (FIG. 14))?
A: little or no sensitization

Q: What does the source list for `Nc1nc(OCc2cc(Br)cs2)c2nc[nH]c2n1` [B.4280, O^6-(4-bromothenyl)guanine]?
A: acute toxicity in combination with BCNU in DBA2 mice, in words [5]: considerably less acutely toxic than B.4205 or BeG; recovery of ATase activity in tissues, in words [6]: activity in brain, testis and bone marrow was near to control levels by 24 hours whereas lung and spleen activity had not completely recovered by 48 hours
